From ChEMBL document CHEMBL1201862, “PubChem BioAssay data set” (2004)
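Growth conditions: 96-well plates. Treatment: test compound, 48 hours, 5 concentrations. Analysis: linear interpolation between bracketing concentrations; unreached endpoints set to highest concentration. GI50 is the concentration that inhibits growth by half.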 Activity calls are given as the source filed them. No stated cut-off is given here; in the data, active = GI50 up to about 1.1 µM and inactive = higher.

Legend:
Test in all cases: DTP human tumour cell line panel, 48 h
MDA-N = tested on: MDA-N
MDA-MB-435 = tested on: MDA-MB-435
MCF7 = tested on: MCF7
M14 = tested on: M14
A498 = tested on: A498
IGROV-1 = tested on: IGROV-1
NCI-H460 = tested on: NCI-H460
DU-145 = tested on: DU-145
SNB-75 = tested on: SNB-75
TK-10 = tested on: TK-10
CAKI-1 = tested on: CAKI-1
NCI-H522 = tested on: NCI-H522
SK-MEL-28 = tested on: SK-MEL-28
786-0 = tested on: 786-0
Malme-3M = tested on: Malme-3M
EKVX = tested on: EKVX
HT-29 = tested on: HT-29
NCI-H23 = tested on: NCI-H23
COLO 205 = tested on: COLO 205
SN12C = tested on: SN12C
HOP-62 = tested on: HOP-62
SK-MEL-5 = tested on: SK-MEL-5
NCI/ADR-RES = tested on: NCI/ADR-RES
K562 = tested on: K562
UO-31 = tested on: UO-31
NCI-H226 = tested on: NCI-H226
SNB-19 = tested on: SNB-19
SK-MEL-2 = tested on: SK-MEL-2
SK-OV-3 = tested on: SK-OV-3
OVCAR-4 = tested on: OVCAR-4
SW-620 = tested on: SW-620
ACHN = tested on: ACHN
MOLT-4 = tested on: MOLT-4
UACC-257 = tested on: UACC-257
SF-295 = tested on: SF-295
SF-268 = tested on: SF-268
MDA-MB-231 = tested on: MDA-MB-231
HCT-15 = tested on: HCT-15
A549 = tested on: A549
OVCAR-5 = tested on: OVCAR-5
BT-549 = tested on: BT-549
KM12 = tested on: KM12
PC-3 = tested on: PC-3
UACC-62 = tested on: UACC-62
HCT-116 = tested on: HCT-116
RPMI-8226 = tested on: RPMI-8226
HOP-92 = tested on: HOP-92
U-251 = tested on: U-251
HCC 2998 = tested on: HCC 2998
OVCAR-3 = tested on: OVCAR-3
SR = tested on: SR
CCRF-CEM = tested on: CCRF-CEM
RXF 393 = tested on: RXF 393
T47D = tested on: T47D
LOX IMVI = tested on: LOX IMVI
Hs-578T = tested on: Hs-578T
HL-60 = tested on: HL-60
SF-539 = tested on: SF-539
OVCAR-8 = tested on: OVCAR-8

Measured: GI50

Oc1ccc(O)c(Sc2nnc(CCCCCCCCc3nnc(Sc4cc(O)ccc4O)o3)o2)c1
inactive: MDA-N 17.3 µM | MDA-MB-435 18.2 µM | MCF7 33.8 µM | M14 > 100 µM | A498 > 100 µM | IGROV-1 96.8 µM | NCI-H460 72.9 µM | DU-145 > 100 µM | SNB-75 > 100 µM | TK-10 > 100 µM | CAKI-1 28.8 µM | NCI-H522 23.8 µM | SK-MEL-28 > 100 µM | 786-0 19 µM | Malme-3M 57.3 µM | EKVX > 100 µM | HT-29 > 100 µM | NCI-H23 > 100 µM | COLO 205 48.3 µM | SN12C 90.6 µM | HOP-62 > 100 µM | SK-MEL-5 > 100 µM | NCI/ADR-RES > 100 µM | K562 39.8 µM | UO-31 16.6 µM | NCI-H226 > 100 µM | SNB-19 > 100 µM | SK-MEL-2 > 100 µM | SK-OV-3 > 100 µM | OVCAR-4 33.1 µM | SW-620 31.3 µM | ACHN 28.1 µM | MOLT-4 49.5 µM | UACC-257 > 100 µM | SF-295 > 100 µM | SF-268 73.6 µM | MDA-MB-231 > 100 µM | A549 > 100 µM | OVCAR-5 95.9 µM | BT-549 74.8 µM | KM12 26.7 µM | PC-3 > 100 µM | UACC-62 47.5 µM | HCT-116 18.1 µM | RPMI-8226 23.1 µM | HOP-92 24 µM | U-251 71.6 µM | HCC 2998 75.5 µM
88.7 µM: HCT-15

COC(=O)Cc1c(C2C(CC(=O)OC)c3ccccc3N2C2OC(CO)C(O)C(O)C2O)[nH]c2ccccc12 (configuration not stated)
inactive: MDA-N > 100 µM | MDA-MB-435 > 100 µM | M14 > 100 µM | A498 > 100 µM | IGROV-1 > 100 µM | NCI-H460 > 100 µM | DU-145 > 100 µM | SNB-75 > 100 µM | TK-10 > 100 µM | CAKI-1 > 100 µM | NCI-H522 > 100 µM | SK-MEL-28 > 100 µM | Malme-3M > 100 µM | EKVX > 100 µM | OVCAR-3 > 100 µM | HT-29 > 100 µM | NCI-H23 > 100 µM | COLO 205 > 100 µM | SN12C > 100 µM | HOP-62 > 100 µM | SK-MEL-5 > 100 µM | UO-31 > 100 µM | SR > 100 µM | SNB-19 > 100 µM | SK-MEL-2 > 100 µM | SK-OV-3 > 100 µM | OVCAR-4 > 100 µM | SW-620 > 100 µM | MOLT-4 > 100 µM | UACC-257 > 100 µM | SF-295 > 100 µM | SF-268 > 100 µM | MDA-MB-231 > 100 µM | CCRF-CEM > 100 µM | A549 > 100 µM | OVCAR-5 > 100 µM | BT-549 > 100 µM | KM12 > 100 µM | PC-3 > 100 µM | UACC-62 > 100 µM | HCT-116 > 100 µM | RPMI-8226 > 100 µM | HOP-92 > 100 µM | U-251 > 100 µM | HCC 2998 > 100 µM
> 100 µM: HCT-15

Cc1c(/C=N/NC(=S)Nc2ccccc2)c(=O)n(-c2ccccc2)n1C
inactive: MDA-MB-435 > 100 µM | MCF7 > 100 µM | M14 > 100 µM | A498 71.4 µM | RXF 393 > 100 µM | T47D > 100 µM | IGROV-1 > 100 µM | NCI-H460 > 100 µM | DU-145 > 100 µM | SNB-75 > 100 µM | TK-10 > 100 µM | LOX IMVI > 100 µM | CAKI-1 46.2 µM | SK-MEL-28 > 100 µM | Hs-578T > 100 µM | 786-0 > 100 µM | EKVX > 100 µM | HL-60 > 100 µM | HT-29 > 100 µM | NCI-H23 > 100 µM | COLO 205 > 100 µM | HOP-62 > 100 µM | SK-MEL-5 > 100 µM | NCI/ADR-RES 22.1 µM | K562 31.2 µM | SF-539 > 100 µM | UO-31 57.5 µM | SR > 100 µM | NCI-H226 > 100 µM | SNB-19 > 100 µM | SK-MEL-2 > 100 µM | SK-OV-3 > 100 µM | OVCAR-4 > 100 µM | SW-620 > 100 µM | ACHN > 100 µM | MOLT-4 > 100 µM | UACC-257 > 100 µM | SF-295 > 100 µM | SF-268 > 100 µM | MDA-MB-231 > 100 µM | CCRF-CEM 48 µM | OVCAR-8 > 100 µM | BT-549 > 100 µM | KM12 > 100 µM | PC-3 > 100 µM | UACC-62 > 100 µM | HCT-116 > 100 µM | RPMI-8226 > 100 µM | HOP-92 > 100 µM | U-251 > 100 µM | HCC 2998 > 100 µM
47.5 µM: HCT-15
